Test system: cells of the present invention (Metaheps)
Test: Long-term toxicity in the cells of the present invention (LDH release over 15 days)
Format: cell-based, human
Settings: Metaheps incubated 15 days with low concentrations (diclofenac 50 μM, acetaminophen 500 μM)
Experimental: On incubation days 1, 3, 6, 8, 10, 13 and 15 medium samples were drawn and LDH activity in media was determined using the Cytotoxicity Kit from Promega. LDH release was calculated in % as 100×(LDH in media/LDH media+LDH lysate).

SMILES | toxicity in Metaheps as measured by LDH release
CC(=O)Nc1ccc(O)cc1 [acetaminophen] | acute toxicity
O=C(O)Cc1ccccc1Nc1c(Cl)cccc1Cl [diclofenac] | long-term toxicity
